The target of one experiment is DHFR (Escherichia coli, UniProt P0ABQ4). The experiment is described as follows: Validation of novel hit by FP assay (IC50). It counts as binding. Particulars: validation of screening hit; FIG. 2g. Here is the method: (§1) FIGS. 2A-2H show the application of LDA in quantifying compounds' IC50 and screening. […] IC50 of compound 1-3 determined by LDA (FIG. 2B) and FP assay (FIG. 2C). […] DNA samples with read numbers below 2 in sequencing were excluded.
(§2) Enrichment of the probes from the two groups were well distinguished (Z′ factor=0.77), indicating a robustness suitable for HTS (FIG. 1e). To further assess well-to-well variability, this experiment was repeated with separate incubation of samples in a well plate. A similar but slightly worse Z′ factor (Z′=0.54, Fig. SX) was observed. We then used this approach to screen the Library of Pharmacologically Active Compounds (LOPAC) library against dihydrofolate reductase (DHFR), a therapeutic target for treating infections (FIG. 2f). Hit compounds within the library displaces the DNA-linked trimethoprim, leading to lower enrichment of the DNA-trimethoprim.

Experiment [1] deals with dihydrofolate reductase (DHFR) (Escherichia coli, UniProt P0ABQ4). Nature of the experiment: LDA screening of LOPAC library with DNA-linked trimethoprim probe. The settings on record: FIG. 2f. It counts as binding. As for the experimental part:
as §1, §2

Usually IC50 stands for the midpoint of a concentration-inhibition curve. A high value points to weaker potency in that assay. The molecule `CN(CCOc1ccc(C[C@H](Nc2ccccc2C(=O)c2ccccc2)C(=O)O)cc1)c1ccccn1` [GW1929] displayed an IC50 on DHFR of 7.9 µM. Moreover, in experiment [1], the “probe recovery (enrichment of DNA-trimethoprim) in LOPAC screen” value is “low probe recovery”.

The record behind these values is patent US12669497B2, “Affinity labeling of DNA-linked ligands for high throughput ligand binding assays and the uses thereof” (Purdue Research Foundation, priority 2020, dated 2026).
